pIC50: −log10 of the molar value.
target: T1, FLAG-tagged full length PHD2 (Homo sapiens, UniProt Q9GZT9); experiment: PHD2 inhibition assay (time resolved fluorescence, HIF-1α peptide hydroxylation, VHL complex detection); type: biochemical; details: 0.2 μM 2-oxoglutarate, 0.5 μM HIF-1α peptide
T1 construct: FLAG-tagged full length PHD2 expressed in and purified from baculovirus-infected Sf9 cells; FLAG; made in house; host or cells: baculovirus-infected Sf9 cells
Protocol: To each well of a 96-well plate was added 1 μL of test compound in DMSO and 20 μl of assay buffer (50 mM Tris pH 7.4/0.01% Tween-20/0.1 mg/ml bovine serum albumin/10 μM ferrous sulfate/i mM sodium ascorbate/20 μg/ml catalase) containing 0.15 μg/ml FLAG-tagged full length PHD2 expressed in and purified from baculovirus-infected Sf9 cells. After a 30 min preincubation at room temperature, the enzymatic reactions were initiated by the addition of 4 μL of substrates (final concentrations of 0.2 μM 2-oxoglutarate and 0.5 μM HIF-1α peptide biotinyl-DLDLEMLAPYIPMDDDFQL (SEQ ID NO: 1)). After 2 hr at room temperature, the reactions were terminated and signals were developed by the addition of a 25 μL quench/detection mix to a final concentration of 1 mM ortho-phenanthroline, 0.1 mM EDTA, 0.5 nM anti-(His)6 LANCE reagent (Perkin-Elmer Life Sciences), 100 nM AF647-labeled streptavidin (Invitrogen), and 2 μg/ml (His)6-VHL complex (S. Tan (2001) Protein Expr. Purif. 21, 224-234). The ratio of time resolved fluorescence signals at 665 and 620 nm was determined, and percent inhibition was calculated relative to an uninhibited control sample run in parallel.

T1 sequence (Q9GZT9 whole entry): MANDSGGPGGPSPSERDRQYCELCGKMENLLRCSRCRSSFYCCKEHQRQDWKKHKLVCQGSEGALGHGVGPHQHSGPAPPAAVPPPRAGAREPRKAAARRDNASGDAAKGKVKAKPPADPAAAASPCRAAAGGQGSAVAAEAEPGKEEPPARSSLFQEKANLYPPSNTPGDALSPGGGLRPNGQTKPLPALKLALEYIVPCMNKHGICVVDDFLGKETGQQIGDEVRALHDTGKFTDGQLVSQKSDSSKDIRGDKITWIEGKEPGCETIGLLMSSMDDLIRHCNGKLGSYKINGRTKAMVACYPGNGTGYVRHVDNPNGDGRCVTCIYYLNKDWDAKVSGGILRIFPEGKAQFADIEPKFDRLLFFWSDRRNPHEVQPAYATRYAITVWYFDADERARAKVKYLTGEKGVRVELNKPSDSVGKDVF

| pIC50 | Structure (SMILES) |
| --- | --- |
| 5.00 to 7.00 | CC(NC(=O)c1cnc(-c2ccccn2)nc1O)c1ccc(P(=O)(O)O)cc1 (stereo not shown) [Compound 3-2, 4-(1-(4-hydroxy-2-(pyridin-2-yl)pyrimidine-5-carboxamido)ethyl)phenylphosphonic acid] |
| 5.00 to 7.00 | C[C@@H](NC(=O)c1cnc(-c2ccccn2)nc1O)c1ccc(P(=O)(O)O)cc1 [Compound 3-5, (R)-4-(1-(4-hydroxy-2-(pyridin-2-yl)pyrimidine-5-carboxamido)ethyl)phenylphosphonic acid] |
| 5.00 to 7.00 | C[C@H](NC(=O)c1cnc(-c2ccccn2)nc1O)c1ccc(P(=O)(O)O)cc1 [Compound 3-7, (S)-4-(1-(4-hydroxy-2-(pyridin-2-yl)pyrimidine-5-carboxamido)ethyl)phenylphosphonic acid] |
| 7.70 to 9.30 | COc1ccc(C(NC(=O)c2cnc(-c3ccccn3)nc2O)c2cccc(P(=O)(O)O)c2)cc1 (stereo not shown) [Compound 5-1, 3-((4-hydroxy-2-(pyridin-2-yl)pyrimidine-5-carboxamido)(4-methoxyphenyl)methyl)phenylphosphonic acid] |
| 7.70 to 9.30 | CC(C)OP(=O)(OC(C)C)C(NC(=O)c1cnc(-c2ccccn2)nc1O)c1ccccc1 (stereo not shown) [Compound 6-1, Diisopropyl (4-hydroxy-2-(pyridin-2-yl)pyrimidine-5-carboxamido)(phenyl)methyl phosphonate] |
| 7.00 to 7.70 | CC(C)OP(=O)(O)C(NC(=O)c1cnc(-c2ccccn2)nc1O)c1ccccc1 (stereo not shown) [Compound 6-2, Isopropyl Hydrogen (4-hydroxy-2-(pyridin-2-yl)pyrimidine-5-carboxamido)(phenyl)methylphosphonate] |

The remaining lines, values behind:

| Structure (SMILES) | pIC50 |
| --- | --- |
| CCOC(=O)C(C)NP(=O)(N[C@@H](C)C(=O)OCC)c1ccc(C(NC(=O)c2cnc(-c3ccccn3)nc2O)c2ccc(OC)cc2)cc1 (stereo in doubt) [Compound 1-1-3, (2S,2′S)-diethyl 2,2′-((4-((4-hydroxy-2-(pyridin-2-yl)pyrimidine-5-carboxamido)(4-methoxyphenyl)methyl)phenyl)phosphoryl)bis(azanediyl)dipropanoate] | 7.00 to 7.70 |
| CCOP(=O)(OCC)c1ccc(C(NC(=O)c2cnc(-c3ccccn3)nc2O)c2ccc(OC)cc2)cc1 (stereo not shown) [Compound 1-1-1, Diethyl 4-((4-hydroxy-2-(pyridin-2-yl)pyrimidine-5-carboxamido)(4-methoxyphenyl)methyl)phenylphosphonate] | 7.70 to 9.30 |
| COc1ccc(C(NC(=O)c2cnc(-c3ccccn3)nc2O)c2ccc(P(=O)(O)O)cc2)cc1 (stereo not shown) [Compound 1-1-2, 4-((4-hydroxy-2-(pyridin-2-yl)pyrimidine-5-carboxamido)(4-methoxyphenyl)methyl)phenylphosphonic acid] | 7.70 to 9.30 |
| CCOC(=O)C(C)(C)NP(=O)(NC(C)(C)C(=O)OCC)c1ccc(C(NC(=O)c2cnc(-c3ccccn3)nc2O)c2ccc(OC)cc2)cc1 (stereo not shown) [Compound 1-1-4, diethyl 2,2′-((4-((4-hydroxy-2-(pyridin-2-yl)pyrimidine-5-carboxamido)(4-methoxyphenyl)methyl)phenyl)phosphoryl)bis(azanediyl)bis(2-methylpropanoate)] | 7.70 to 9.30 |
| CCOC(=O)CNP(=O)(NCC(=O)OCC)c1ccc(C(NC(=O)c2cnc(-c3ccccn3)nc2O)c2ccc(OC)cc2)cc1 (stereo not shown) [Compound 1-1-5, diethyl 2,2′-((4-((4-hydroxy-2-(pyridin-2-yl)pyrimidine-5-carboxamido)(4-methoxyphenyl)methyl)phenyl)phosphoryl)bis(azanediyl)diacetate] | 7.00 to 7.70 |
| COc1ccc(C(NC(=O)c2cnc(-c3ccccn3)nc2O)c2ccc([PH](=O)O)cc2)cc1 (stereo not shown) [Compound 1-1-6, 4-((4-hydroxy-2-(pyridin-2-yl)pyrimidine-5-carboxamido)(4-methoxyphenyl)methyl)phenylphosphinic acid] | 7.70 to 9.30 |
| CCOP(=O)(OCC)c1ccc(C(NC(=O)c2cnc(-c3ccccn3)nc2O)c2ccccc2)cc1 (stereo not shown) [Compound 2-1, Diethyl 4-((4-hydroxy-2-(pyridin-2-yl)pyrimidine-5-carboxamido)(phenyl)methyl)phenyl phosphonate] | 7.70 to 9.30 |
| O=C(NC(c1ccccc1)c1ccc(P(=O)(O)O)cc1)c1cnc(-c2ccccn2)nc1O (stereo not shown) [Compound 2-2, 4-((4-hydroxy-2-(pyridin-2-yl)pyrimidine-5-carboxamido)(phenyl)methyl)phenyl phosphonic acid] | 7.70 to 9.30 |
| CCOP(=O)(O)c1ccc(C(NC(=O)c2cnc(-c3ccccn3)nc2O)c2ccccc2)cc1 (stereo not shown) [Compound 2-3, Ethyl 4-((4-hydroxy-2-(pyridin-2-yl)pyrimidine-5-carboxamido)(phenyl)methyl)phenylphosphonate] | 7.70 to 9.30 |
| CCOP(C)(=O)c1ccc(C(NC(=O)c2cnc(-c3ccccn3)nc2O)c2ccccc2)cc1 (stereo not shown) [Compound 2-4, ethyl 4-((4-hydroxy-2-(pyridin-2-yl)pyrimidine-5-carboxamido)(phenyl)methyl)phenyl(methyl)phosphinate] | 7.70 to 9.30 |
| CP(=O)(O)c1ccc(C(NC(=O)c2cnc(-c3ccccn3)nc2O)c2ccccc2)cc1 (stereo not shown) [Compound 2-5, 4-((4-hydroxy-2-(pyridin-2-yl)pyrimidine-5-carboxamido)(phenyl)methyl)phenyl(methyl)phosphinic acid] | 7.70 to 9.30 |
| CCOP(=O)(OCC)c1ccc(C(C)NC(=O)c2cnc(-c3ccccn3)nc2O)cc1 (stereo not shown) [Compound 3-1, Diethyl 4-(1-(4-hydroxy-2-(pyridin-2-yl)pyrimidine-5-carboxamido)ethyl)phenyl phosphonate] | 7.00 to 7.70 |
| CCOP(=O)(O)c1ccc(C(C)NC(=O)c2cnc(-c3ccccn3)nc2O)cc1 (stereo not shown) [Compound 3-3, Ethyl hydrogen 4-(1-(4-hydroxy-2-(pyridin-2-yl)pyrimidine-5-carboxamido)ethyl)phenylphosphonate] | 5.00 to 7.00 |
| CC(NC(=O)c1cnc(-c2cccnn2)nc1O)c1ccc(P(=O)(O)O)cc1 (stereo not shown) [Compound 3-3a, 4-(1-(4-Hydroxy-2-(pyridazin-3-yl)pyrimidine-5-carboxamido)ethyl)phenylphosphonic acid] | 5.00 to 7.00 |
| C[C@@H](NC(=O)c1cnc(-c2cccnn2)nc1O)c1ccc(P(=O)(O)O)cc1 [Compound 3-5a, (R)-4-(1-(4-hydroxy-2-(pyridazin-3-yl)pyrimidine-5-carboxamido)ethyl)phenylphosphonic acid] | 7.00 to 7.70 |
| C[C@H](NC(=O)c1cnc(-c2cccnn2)nc1O)c1ccc(P(=O)(O)O)cc1 [Compound 3-7a, (S)-4-(1-(4-hydroxy-2-(pyridazin-3-yl)pyrimidine-5-carboxamido)ethyl)phenylphosphonic acid] | 5.00 to 7.00 |
| CCOP(=O)(OCC)c1ccc(C(NC(=O)c2cnc(-c3ccccn3)nc2O)c2ccccc2)cn1 (stereo not shown) [Compound 4-1, Diethyl 5-((4-hydroxy-2-(pyridin-2-yl)pyrimidine-5-carboxamido)(phenyl)methyl)pyridin-2-ylphosphonate] | 7.70 to 9.30 |
| CCOP(=O)(O)c1ccc(C(NC(=O)c2cnc(-c3ccccn3)nc2O)c2ccccc2)cn1 (stereo not shown) [Compound 4-2, Ethyl hydrogen 5-((4-hydroxy-2-(pyridin-2-yl)pyrimidine-5-carboxamido)(phenyl)methyl)pyridin-2-ylphosphonate] | 7.70 to 9.30 |
| CCOP(=O)(OCC)c1ccc(C(C)C(=O)Nc2cnc(-c3ccccn3)nc2O)cc1 (stereo not shown) [Compound 7-1, Diethyl 4-(1-(4-hydroxy-2-(pyridin-2-yl)pyrimidin-5-ylamino)-1-oxopropan-2-yl)phenyl phosphonate] | 5.00 to 7.00 |

— US9079930B2, “Substituted pyrimidines” (MERCK SHARP & DOHME CORP., priority 2011, dated 2015)
